Measurements taken from patent EP4310070A1, “USE OF TRANS AMANTADINE DERIVATIVE OR SALT THEREOF” (Chengdu Shibeikang Biomedical Technology Co., Ltd., priority 2021, dated 2022).
Structures can show the parent of a compound that is named as a salt. Marks after values point to notes of the source that are not given here.

Legend:
[1] = test system: acute lung injury in mice induced by oleic acid; assay: acute lung injury test in mouse (oleic acid-induced, histological grading of lung pathology); assay type: in vivo, KM mice; conditions: for protective effect against acute lung injury in mice induced by oleic acid: compared with the model control group (P<0.05 or P<0.01), 40 mg/kg free base i.v.; for Overall lung pathology score: group sum, weighted (alveolar wall thickening x 1, inflammatory cell infiltration x 1, lung tissue necrosis x 3), 40 mg/kg free base i.v. once a day for 4 times, model control 81, normal control 21; for Alveolar wall thickening Level 0 / Inflammatory cell infiltration Level 0 / Lung tissue necrosis Level 0: number of mice (11 per group) at score 0 (No pathological change); for Alveolar wall thickening Level 0 / Inflammatory cell infiltration Level 0 / Lung tissue necrosis Level 0 / Alveolar wall thickening Level 1 / Inflammatory cell infiltration Level 1 / Lung tissue necrosis Level 1 / Alveolar wall thickening Level 2 / Inflammatory cell infiltration Level 2 / Lung tissue necrosis Level 2 / Alveolar wall thickening Level 3 / Inflammatory cell infiltration Level 3 / Lung tissue necrosis Level 3 / Alveolar wall thickening Level 4 / Inflammatory cell infiltration Level 4 / Lung tissue necrosis Level 4: 40 mg/kg in terms of free base, intravenously once a day for 4 times, oleic acid 300 mg/kg i.v.; for Alveolar wall thickening Level 1 / Inflammatory cell infiltration Level 1 / Lung tissue necrosis Level 1: number of mice (11 per group) at score 1 (Occasional); for Alveolar wall thickening Level 2 / Inflammatory cell infiltration Level 2 / Lung tissue necrosis Level 2: number of mice (11 per group) at score 2 (Mild); for Alveolar wall thickening Level 3 / Inflammatory cell infiltration Level 3 / Lung tissue necrosis Level 3: number of mice (11 per group) at score 3 (Moderate); for Alveolar wall thickening Level 4 / Inflammatory cell infiltration Level 4 / Lung tissue necrosis Level 4: number of mice (11 per group) at score 4 (Severe)
Description: KM mice, weighing 18-22g, with all 66 being males, were used and randomly grouped into a normal control group, a model control group, a Formula I compound group (40 mg/kg, in terms of free base), a Formula V compound group (40 mg/kg, in terms of free base), a Comparative Example group (40 mg/kg, in terms of free base), and an ambroxol hydrochloride group (40 mg/kg, in terms of free base), 11 animals in each group, and each group was administered intravenously (dissolved in normal saline by adjusting pH or directly dissolved in normal saline) once a day for 4 times, while the model control group and the normal control group were given an equivalent amount of normal saline. 30 minutes after the last administration, except for the normal control group, all other mice were administered 300 mg/kg oleic acid intravenously (prepared into the desired concentration with sterile saline containing 0.1% […] immediately before use), and the vehicle control group was given an equivalent volume of 0.1% BSA saline. The mice were sacrificed 4 hours after the last administration, and the right lobes of the lungs were removed and fixed in a 10% formaldehyde solution. After dehydration, embedding in paraffin, dissection, and staining with HE, they were observed under a microscope for pathological changes of the lung tissues. Here, the medicament used for the Comparative Example group was the 4-[(2-amino-3,5-dibromobenzyl)amino]adamantan-1-ol hydrochloride (racemic) prepared in Comparative Example 1. Table 1. Criteria for histological grading of lung injury
The above indicators are multiplied by different weighting numbers depending on the significance of the pathology (alveolar wall thickening × 1, inflammatory cell infiltration × 1, lung tissue necrosis × 3), and finally added up to obtain an overall lung pathology score. Table 2. Test results of lung pathologies of each group

[2] = test system: ammonia-induced coughing response in mice; assay: cough response of mice induced by ammonia water; assay type: in vivo, KM mice; conditions: for reduction of the number of coughs: compared with the model control group (P<0.05 or P<0.01), 15 mg/kg free base i.v.; for Number of coughs (times): within 3 minutes after concentrated ammonia, 15 mg/kg in terms of free base i.v., 30 minutes after administration, x ± s, n=10, model control 41.7±8.76
Description: 50 KM mice, weighing 18-22g, of both sexes were used and randomly divided into 5 groups, a model control group, a Formula I compound group (15 mg/kg, in terms of free base), a Formula V compound group (15 mg/kg, in terms of free base), a Comparative Example group (15 mg/kg, in terms of free base), and an ambroxol hydrochloride group (15 mg/kg, in terms of free base), 10 animals in each group, and were administered intravenously (dissolved in normal saline by adjusting pH or directly dissolved in normal saline). 30 minutes after the administration, the mice were put in an inverted beaker with a volume of 500ml and a cotton ball inside. Timing was started once 0.2ml of concentrated ammonia/mouse was added onto the cotton ball. The number of coughs of each animal within 3 minutes was observed and recorded. Here, the medicament used for the Comparative Example group was the 4-[(2-amino-3,5-dibromobenzyl)amino]adamantan-1-ol hydrochloride (racemic) prepared in Comparative Example 1. Table 3. Effect on ammonia-induced coughing response in mice (x ± s, n=10)

[3] = test system: expectoration amount by rat capillary tube expectoration; assay: rat capillary sputum excretion test; assay type: in vivo, SD rats; conditions: length of liquid in capillary tube within 90 minutes, 15 mg/kg in terms of free base via tail vein, 30 minutes after administration, n=10, vehicle control 22.7±4.41
Description: 180-220g SD rats of both sexes were used and divided into random groups, with 10 rats in each group, namely a vehicle control group, a Formula I compound group (15 mg/kg, in terms of free base), a Formula V compound group (15 mg/kg, in terms of free base), a Comparative Example group (15 mg/kg, in terms of free base) and ambroxol hydrochloride (15 mg/kg, in terms of free base). The rats were fasted and restrained from water for 12 hours before testing the amount of sputum excretion, and administered the respective medicaments via the tail vein (dissolved in normal saline by adjusting pH or directly dissolved in normal saline). 30 minutes after the administration, they were anesthetized by intraperitoneally injecting 1g/kg of a urethane solution in saline, fixed in supine position, and the trachea was separated after cutting through neck skin. A small hole was pierced by using a syringe needle between the two cartilage rings on the lower edge of the thyroid cartilage, and a capillary tube (with an inner diameter of 0.8mm, and a length of 10cm) was inserted centripetally into the trachea. Sputum was collected while adjusting the angle between the capillary tube and the trachea, and the total number of the length of liquids in the capillary tube (mm) was used to evaluate the expectoration effect. The amount of expectoration of the rats within 90 minutes was recorded. Here, the medicament used for the Comparative Example group was the 4-[(2-amino-3,5-dibromobenzyl)amino]adamantan-1-ol hydrochloride (racemic) prepared in Comparative Example 1. Table 4. Results of the effect on the expectoration amount by rat capillary tube expectoration

[4] = test system: tracheal phenol red secretion in mice; assay: phenol red expectoration test in mice; assay type: in vivo; conditions: colorimetric measurement at 546nm; 30 mg/kg in terms of free base via tail vein 2 times in a row; x ± s, n=12; control 0.095±0.022
Description: Experimental method: 60 mice of both sexes were used and randomly divided into a control (normal saline) group, a Formula I compound group (30 mg/kg, in terms of free base), a Formula V compound group (30 mg/kg, in terms of free base), a Comparative Example group (30 mg/kg, in terms of free base) and ambroxol hydrochloride (30 mg/kg, in terms of free base), 12 rats in each group; the respective medicaments were administered via the tail vein (dissolved in normal saline by adjusting pH or directly dissolved in normal saline) 2 times in a row. 15 minutes after the last administration to the mice, a 5% phenol red solution in normal saline (0.5g/kg) was subcutaneously injected. After 30 minutes, the mice were sacrificed and a section of the trachea was cut from below the thyroid cartilage to the trachea branch. The section was placed in a test tube containing 1 mL of normal saline, shaken and soaked for 30 minutes, and then centrifuged for 10 minutes (3000 r/min). The supernatant was transferred to another test tube, 0.1 mL of 1M NaOH solution was added, and shaken uniformly for a colorimetric measurement at 546nm. The effects of each group on the tracheal phenol red secretion in mice were statistically compared, and the experimental results obtained are shown in Table 5 below. Here, the medicament used for the Comparative Example group was the 4-[(2-amino-3,5-dibromobenzyl)amino]adamantan-1-ol hydrochloride (racemic) prepared in Comparative Example 1. Table 5. Effects on tracheal phenol red secretion in mice (x ± s)

| SMILES | protective effect against acute lung injury in mice induced by oleic acid [1] | Overall lung pathology score [1] | Alveolar wall thickening Level 0 [1] | Inflammatory cell infiltration Level 0 [1] | Lung tissue necrosis Level 0 [1] | Alveolar wall thickening Level 1 [1] | Inflammatory cell infiltration Level 1 [1] | Lung tissue necrosis Level 1 [1] | Alveolar wall thickening Level 2 [1] | Inflammatory cell infiltration Level 2 [1] | Lung tissue necrosis Level 2 [1] | Alveolar wall thickening Level 3 [1] | Inflammatory cell infiltration Level 3 [1] | Lung tissue necrosis Level 3 [1] | Alveolar wall thickening Level 4 [1] | Inflammatory cell infiltration Level 4 [1] | Lung tissue necrosis Level 4 [1] | reduction of the number of coughs [2] | Number of coughs (times) [2] [times] | Phenol red secretion (OD number) [4] [OD number] | other results |
| --- | --- | --- | --- | --- | --- | --- | --- | --- | --- | --- | --- | --- | --- | --- | --- | --- | --- | --- | --- | --- | --- |
| Cl.Nc1c(Br)cc(Br)cc1CNC1C2CC3CC1CC(O)(C3)C2 (racemic) [Compound of Comparative Example, 4-[(2-amino-3,5-dibromobenzyl)amino]adamantan-1-ol hydrochloride (racemic)] | definite protective effect | 44* | 1 | 1 | 8 | 2 | 6 | 2 | 8 | 4 | 1 | 0 | 0 | 0 | 0 | 0 | 0 | significantly reduce the number of coughs | 25.7±6.40 | 0.223±0.058 | Expectoration amount in 90min (mm) [3]: 39.9±5.43 mm |
| Nc1c(Br)cc(Br)cc1CN[C@H]1CC[C@H](O)CC1 [Ambroxol hydrochloride] | – | 54 | 2 | 0 | 6 | 4 | 4 | 4 | 4 | 7 | 0 | 1 | 0 | 1 | 0 | 0 | 0 | significantly reduce the number of coughs | 32.7±8.55 | 0.135±0.023 | Expectoration amount in 90min (mm) [3]: 30.1±4.95 mm |
| Nc1c(Br)cc(Br)cc1CN[C@@H]1[C@@H]2C[C@@H]3C[C@H]1C[C@@](O)(C3)C2 [Compound of Formula I, trans-4-[(2-amino-3,5-dibromobenzyl)amino]adamantan-1-ol] | definite protective effect | – | 1 | 3 | 11 | 7 | 7 | 0 | 3 | 1 | 0 | 1 | 0 | 0 | 0 | 0 | 0 | significantly reduce the number of coughs | – | 0.279±0.063 | Overall lung pathology score ([1]; 40 mg/kg): 23^**▲; Number of coughs (times) ([2]; 15 mg/kg): 19.2±5.98 times; Expectoration amount in 90min (mm) ([3]; 15 mg/kg): 45.9±6.79 mm |
